Results on 13 compounds are retold here after ChEMBL document CHEMBL5033995, “Discovery and Early Clinical Development of LY3202626, a Low-Dose, CNS-Penetrant BACE Inhibitor” (J Med Chem, 2021).

Data set [1] in a line: Lipophilicity, log P of the compound. In kind it is physicochemical. As to conditions: octanol/water.
Data set [2] in a line: Dissociation constant, pKa of compound. The data set is classed as physicochemical.
Data set [3] in a line: Permeability in MDCK cells. The note with it: dog, read-out: permeability. In kind it is ADME, cell-based, Canis lupus familiaris.
Data set [4] in a line: Stability in mouse liver microsomes at 2 uM measured upto 30 mins in presence of NADPH by LC-MS/MS analysis. The data set is classed as ADME, Microsome. The note with it: read-out: Stability.
Data set [5] in a line: Stability in rat liver microsomes at 2 uM measured upto 30 mins in presence of NADPH by LC-MS/MS analysis. In kind it is ADME, Microsome. As to conditions: read-out: Stability.
A short description of data set [6]: Stability in dog liver microsomes at 2 uM measured upto 30 mins in presence of NADPH by LC-MS/MS analysis. In kind it is ADME, Canis lupus familiaris, Microsome. The note with it: read-out: Stability. (In general: Liver microsomes are a subcellular fraction often used to study metabolism.)
Data set [7] in a line: Stability in human liver microsomes at 2 uM measured upto 30 mins in presence of NADPH by LC-MS/MS analysis. In kind it is ADME, Microsome. As to conditions: read-out: Stability.
The nature of data set [8]: Clearance in rat at 2 mg/kg, iv by LC-MS/MS analysis. The data set is classed as ADME, organism-based. The note with it: in vivo.
Data set [9] in a line: Volume of distribution at steady state in rat at 2 mg/kg, iv by LC-MS/MS analysis. In kind it is ADME, organism-based. As to conditions: in vivo, read-out: Vdss.
Data set [10] can be described thus: Clearance in dog at 1 mg/kg, iv by LC-MS/MS analysis. In kind it is ADME, organism-based, Canis lupus familiaris. The note with it: in vivo.
Data set [11] is described as follows: Volume of distribution at steady state in dog at 1 mg/kg, iv by LC-MS/MS analysis. The note with it: in vivo, read-out: Vdss. The data set is classed as ADME, organism-based, Canis lupus familiaris.
The nature of data set [12]: Bioavailability in rat. The data set is classed as ADME, organism-based. The note with it: in vivo.
Data set [13] in a line: Oral clearance in human. The data set is classed as ADME.
The nature of data set [14]: Ratio of free drug concentration in CSF to plasma of dog. In kind it is ADME, Canis lupus familiaris. As to conditions: CSF and plasma.
Data set [15] can be described thus: clinical. As to conditions: human, CSF and plasma.
Data set [16] can be described thus: Drug accumulation in human HepG2 cells lysosomes assessed as maximum fluorescence response after 24 hrs by Lysotracker Green DND-26 dye based assay. As to conditions: hepg2, 24 h. In kind it is ADME, cell-based.

Take `C[C@@H]1C[C@H]1CNC(=O)[C@@H]1C[C@H]1[C@]12COC[C@H]1CSC(N)=N2`: the logP in [1] turned out to be 0.8. Further, the pKa in data set [2] was 8. Moreover, in [3], the Papp is 14 ×10⁻⁶ cm/s. Also, the remaining at 0.5 h, 2 µM in data set [4] worked out at 23%; in data set [5], 84%; in [6], 8%; in data set [7], 19%.
In turn, `COc1cnc(C(=O)Nc2ccc(F)c([C@]34CN(c5ncc(F)cn5)C[C@H]3CSC(N)=N4)c2)cn1` yielded a logP in data set [1] of 3.2. The compound further yielded a pKa in [2] of 7.6. For the same compound, the Papp in data set [3] is 19 ×10⁻⁶ cm/s. Besides, the remaining at 0.5 h, 2 µM was 27% in data set [4], 7% in data set [5], 50% in [6] and 12% in data set [7]. The clearance is 20 mL/min/kg in data set [8] and 5.2 mL/min/kg in data set [10]. Moreover, the values for the Vd in data set [9] and in [11] were 5.2 L/kg and 0.78 L/kg, respectively. This compound also returned a bioavailability in [12] of 47%. Moreover, the CL/F in data set [13] came out at 26 mL/min/kg. Besides, the Kp uu in data set [14] was 0.9; in data set [15], 1.
`C[C@@H]1C[C@H]1CNC(=O)[C@@H]1C[C@H]1[C@]12CN(c3ncccn3)C[C@H]1CSC(N)=N2`: the logP in [1] was 2. The same compound displayed a pKa in data set [2] of 8. Also, the Papp in data set [3] was 8 ×10⁻⁶ cm/s. Further, the remaining at 0.5 h, 2 µM in data set [4] amounted to 33%; in data set [5], 55%; in [6] it was 28%; in data set [7], 13%.
In the case of `C[C@@H]1C[C@H]1COC(C)(C)[C@@H]1C[C@H]1[C@]12CN(c3ncccn3)C[C@H]1CSC(N)=N2`, the Papp in [3] worked out at 36 ×10⁻⁶ cm/s. For the same compound, the remaining at 0.5 h, 2 µM in data set [4] was 98%; in [5], 98%; in data set [6], 79%; in data set [7], 31%.
In [1], `C[C@@]1(c2cc(-c3cncnc3)c(F)cc2F)CCSC(N)=N1` [LY-2811376] registered a logP of 2.9. Besides, the pKa in data set [2] amounted to 8.8. For the same compound, the Papp in [3] stood at 60 ×10⁻⁶ cm/s. The Rmax in data set [16] is recorded as 3364.
`Cl.NC1=N[C@@]2(c3ccns3)CN(c3ncc(F)cn3)C[C@H]2CS1` yielded a logP in data set [1] of 1.3. This compound yielded a pKa in data set [2] of 6.4. Moreover, in data set [3], the Papp stood at 59 ×10⁻⁶ cm/s. In data set [16], the Rmax came to 20. Also, the clearance amounted to 53.2 mL/min/kg in data set [8] and 6 mL/min/kg in [10]. Besides, the Vd in [9] is 2.87 L/kg; in data set [11] it was 2.1 L/kg. Also, the Kp uu in data set [14] came to 1.
`Cl.N#Cc1ccc([C@]23CN(c4ncc(F)cn4)C[C@H]2CSC(N)=N3)s1`: the logP in data set [1] worked out at 2.3. In data set [2], this compound gave a pKa of 6.6. Besides, in data set [16], the Rmax stood at 91.
For the compound `Cl.Cl.NC1=N[C@@]2(c3cccs3)CN(c3ncccn3)C[C@H]2CS1`, the logP in data set [1] stood at 1.9. Also, the pKa in data set [2] is 7.6. Moreover, the Papp in data set [3] was found to be 59 ×10⁻⁶ cm/s.
In data set [1], `NC1=N[C@@]2(c3cc(NC(=O)c4ccc(F)cn4)ccc3F)CN(c3ncc(F)cn3)C[C@H]2CS1` (relative stereo) registered a logP of 3.1. In [2], the pKa amounted to 7.9. For the same compound, in data set [3], the Papp was determined as 33 ×10⁻⁶ cm/s. Also, the remaining at 0.5 h, 2 µM in data set [4] is 25%; in [5] it was 16%; in data set [6] it was 8%; in data set [7], 13%. The figures for the clearance in data set [8] and in [10] were 7.8 mL/min/kg and 1.6 mL/min/kg, respectively. Further, the Vd in data set [9] worked out at 2.5 L/kg; in data set [11], 1.1 L/kg. In data set [12], this compound displayed a bioavailability of 72%. Further, in [14], the Kp uu was 0.1.
With `NC1=N[C@@]2(c3cc(NC(=O)c4ccc(F)cn4)ccc3F)COC[C@H]2CS1` [LY-2886721], the logP in data set [1] was determined as 2.1. Further, the pKa in data set [2] amounted to 7.7. Moreover, the Papp in data set [3] is 55 ×10⁻⁶ cm/s. Also, the remaining at 0.5 h, 2 µM in data set [4] was determined as 33%; in data set [5], 19%; in [6], 0%; in data set [7] it was 11%. Also, the Rmax in data set [16] is listed as 7863. The results for the clearance in [8] and in data set [10] were 94 mL/min/kg and 4.9 mL/min/kg, respectively. For the same compound, the Vd is 10.4 L/kg in [9] and 2.3 L/kg in data set [11]. Besides, the bioavailability in [12] was found to be 30%. The Kp uu in [14] came out at 0.9.
In data set [1], `Cl.NC1=N[C@@]2(c3cccs3)CN(c3ncc(F)cn3)C[C@H]2CS1` yielded a logP of 2.4. In data set [2], this compound gave a pKa of 7.5. In addition, in [3], the Papp was determined as 60 ×10⁻⁶ cm/s. In addition, the Rmax in [16] is 4090.
In turn, `Cl.NC1=N[C@@]2(c3cnccn3)CN(c3ncc(F)cn3)C[C@H]2CS1` showed a logP in data set [1] of 0.8. The compound further yielded a pKa in data set [2] of 7.1. In addition, the Papp in data set [3] was determined as 54 ×10⁻⁶ cm/s. Further, the Rmax in data set [16] was 59.
In data set [1], `NC1=N[C@@]2(c3cc(NC(=O)c4ncc(F)cc4F)ccc3F)CN(c3ncc(F)cn3)C[C@H]2CS1` registered a logP of 2.8. The compound further yielded a pKa in data set [2] of 7.7. In addition, the Papp in data set [3] was found to be 30 ×10⁻⁶ cm/s. The remaining at 0.5 h, 2 µM in data set [4] is 22%; in [5] it was 7%; in data set [6], 7%; in data set [7], 13%. Also, the clearance worked out at 15 mL/min/kg in data set [8] and 2.7 mL/min/kg in [10]. The Vd was determined as 2.2 L/kg in data set [9] and 0.52 L/kg in [11]. Further, in data set [12], the bioavailability was 55%. Also, the Kp uu in data set [14] amounted to 0.2.

One may read the logP as the decadic logarithm of the partition coefficient of the neutral form, usually between octanol and water. Low readings indicate lower lipophilicity, high ones higher lipophilicity. In general, pKa refers to the pH at which an ionisable group is half protonated. Read a high pKa as a group that holds its proton tightly. As a reminder, the clearance is the volume of plasma or blood freed of the substance per unit of time. The bioavailability is the share of a dose that reaches the circulation, judged against a reference dose that is usually intravenous. Higher therefore signals good availability. The term CL/F denotes clearance divided by bioavailability, as obtained after extravascular dosing.
